# Assays:
# S. falcium = assay: Minimal inhibitory concentration (MHK), microtitre plate, TTC staining; assay type: cell-based; settings: 48h, 36°C
# [1] = Radical scavenger screening with DPPH radicals (DPPH test); settings: Konzentrationen 500 und 1000µg/ml
# Description: […] die 6 Verbindungen HMF2, HMF-3, CH-1, L5, Q20 und […]. Die […] durch den DPPH-Test ermittelt, wobei sich die UV/VIS-Absorption des freien stabilen […] (Diphenyl-β-picrylhydrazin) in Abhängigkeit vom Zustand von […]. Die Auswertung erfolgt qualitativ (dünnschichtchromatographisch) und quantitativ (photometrisch) mit Ascorbinsäure […] Molyneux P. (2004) The use of the stabel free radical diphenylpicrylhydrazyl (DPPH) for estimating antioxidant activity. Songklanakarin J Sci Technol. 26(2): 211-219).
# [2] = system: Staphylococcus aureus (Stamm ATCC 6538); assay: Mouse ear test (in vivo), antiseptic effect; parameters: key to Keimwachstum (grade): +++: totale Verhinderung des Keimwachstums; ++: Keimwachstum deutlich reduziert aber nicht völlig unterdrückt; settings: mouse ears infected with S. aureus ATCC 6538; germ count vs infected untreated animal after 18 and 24 h
# S. epidermides = assay: Minimal inhibitory concentration (MHK), microtitre plate, TTC staining; assay type: cell-based; settings: 48h, 36°C
# BT20 = assay: Chemosensitivity test (modified MTT test EZ4U); settings: Homo sapiens, BT-20, 96 h, read-out: IC50-Werte
# Description: (§1) Die Verbindungen wurden in Dimethylsulfoxid (DMSO) als konzentrierte Stammlösungen (100-400fach) gelöst und für Proliferationstests in Zellkulturmedium verdünnt.
# (§2) Mit Ausnahme von SIM, KAL Ewingsarkom (in Wien etabliert) und LAN Neuroblastom (University of Los Angeles) wurden die Zell-Linien von der American Type Culture Collection (ATCC, Rockville, MD) bezogen und zum Erhalt von konfluenten Monolayerkulturen in RPMI-1640 Bikarbonatmedium (Seromed, Berlin, Deutschland) in einem Zellkulturschrank (5% CO2, 37°C) kultiviert. Mit der Ausnahme der murinen NlH3T3 Fibroblasten sind alle verwendeten Zell-Linien humanen Ursprungs. Die Zellen wurden auf Verunreinigung durch Mycoplasmen untersucht. Das Medium wurde mit 10% hitzeinaktiviertem foetalem Kälberserum (Seromed) and 4 mM Glutamin ergänzt. Die Zellen wurden durch Trypsinierung subkultiviert (0.03% Trypsin enthaltend 0.02% EDTA, dreimal pro Woche). Die Trypsinierung wurde durch Verwendung vom komplettem Zellkulturmedium gestoppt. Die Zellzahl wurde unter Verwendung eines TOA Sysmex Microzellzählers (TOA, Tokyo, Japan) bestimmt.
# (§3) 10^4 Zellen/well wurden in Mikrotiterplatten mit 96 Vertiefungen (100 µl Medium) verteilt und die zu testenden Verbindungen wurden in einem weiteren Volumen von 100 µl hinzugegeben. […]
# HT29 = assay: Chemosensitivity test (modified MTT test EZ4U); settings: Homo sapiens, HT-29, 96 h, read-out: IC50-Werte
# Description: as §1, §2, §3
# Bacillus subitilis = assay: Minimal inhibitory concentration (MHK), microtitre plate, TTC staining; assay type: cell-based; settings: 48h, 36°C
# Micrococcus luteus = assay: as above; assay type: cell-based; settings: 48h, 36°C
# BxPC3 = assay: Chemosensitivity test (modified MTT test EZ4U); settings: Homo sapiens, BXPC-3, 96 h, read-out: IC50-Werte
# Description: as §1, §2, §3
# MDA-MB435 = assay: Chemosensitivity test (modified MTT test EZ4U); settings: Homo sapiens, MDA-MB-435, 96 h, read-out: IC50-Werte
# Description: as §1, §2, §3
# MIAPaCa2 = assay: Chemosensitivity test (modified MTT test EZ4U); settings: Homo sapiens, MIA PaCa-2, 96 h, read-out: IC50-Werte
# Description: as §1
# (§4) Die Zellen wurden auf Verunreinigung durch Mycoplasmen untersucht. Das Medium wurde mit 10% hitzeinaktiviertem foetalem Kälberserum (Seromed) and 4 mM Glutamin ergänzt. Die Zellen wurden durch Trypsinierung subkultiviert (0.03% Trypsin enthaltend 0.02% EDTA, dreimal pro Woche). Die Trypsinierung wurde durch Verwendung vom komplettem Zellkulturmedium gestoppt. Die Zellzahl wurde unter Verwendung eines TOA Sysmex Microzellzählers (TOA, Tokyo, Japan) bestimmt.
# (§5) 10^4 Zellen/well wurden in Mikrotiterplatten mit 96 Vertiefungen (100 µl Medium) verteilt und die zu testenden Verbindungen wurden in einem weiteren Volumen von 100 µl hinzugegeben. Alle Verbindungen wurden entweder in 3 fixen Konzentrationen eingesetzt (für Tabellen 1-3) oder in 10 Stufen verdünnt unter Verwendung von Zweifachverdünnungsschritten zur Bestimmung der IC50-Werte (dreifache Ansätze, in den meisten Fällen vierfache Ansätze). Die Platten wurden, mit der Ausnahme der Tests zur Untersuchung des Zusammenhangs von Applikationsdauer und Zellreaktion, 4 Tage lang unter Zellkulturbedingungen inkubiert und die Zellviabilität wurde unter Verwendung eines modifizierten MTT Tests bestimmt (Formazan-Farbstoffbildung aus Tetrazoliumsalzen wie MTT, XTT, WST-1 und anderen durch das mitochondriale Reduktionsystem Succinattetrazolium Reductase EC 1.3.99.1.; EZ4U nichtradioaktiver Zellproliferations- und Cytotoxizitätstest, Biomedica, Wien, Österreich; Testmanual unter: www.bmgrp.com). Hierbei wurde die mitochondriale Aktivität und dadurch die Zellviabilität/Zellzahl bestimmt. Kurz gesagt wurde das gelieferte Substrat in einer Aktivatorlösung gelöst und 20 µl der Mischung wurden für 2 Stunden pro Vertiefung hinzugegeben (Gesamtvolumen 200 µl). Die optische Dichte wurde bei 450 nm unter Verwendung einer leeren Vertiefung als Referenz in einem Mikroplattenlesegerät (Eurogenetics, Brüssel, Belgien) bestimmt. Für jede Zell-Line wurden Vertiefungen verwendet um das MTT-Signal der Mediumkontrollen ohne Testsubstanzen zu bestimmen. Die Proliferation in den Test-Vertiefungen wurde in Bezug auf diese Kontrollwerte (100%) errechnet. Die Testergebnisse wurden zwischen 0,3 und 1,5 optischer Dichte für langsam bzw. schnellproliferierende Zellen erfasst. Diese Dosis-Wirkungs-Beziehungen wurden verwendet um die IC50 (Konzentration bei der das Wachstum um 50% gehemmt wird) unter Verwendung von PRISM Scientific Software (GraphPad Inc., San Diego, CA) zu berechnen.
# CaCo-2 = assay: Chemosensitivity test (modified MTT test EZ4U); settings: Homo sapiens, Caco-2, 96 h, read-out: IC50-Werte
# Description: as §1, §4, §5
# SW620 = assay: Chemosensitivity test (modified MTT test EZ4U); settings: Homo sapiens, SW-620, 96 h, read-out: IC50-Werte
# Description: as §1, §4, §5
# DU 145 = assay: Chemosensitivity test (modified MTT test EZ4U); settings: Homo sapiens, DU-145, 96 h, read-out: IC50-Werte
# Description: as §1, §2, §3
# Colo205 = assay: Chemosensitivity test (modified MTT test EZ4U); settings: Homo sapiens, COLO 205, 96 h, read-out: IC50-Werte
# Description: as §1, §4, §5
# Salmonella sp = assay: Minimal inhibitory concentration (MHK), microtitre plate, TTC staining; assay type: cell-based; settings: 48h, 36°C
# Description: Das Inokulum für die Tests wurde durch Verdünnung der Mikroorganismen in wässriger 0,85% NaCI-Lösung hergestellt, die Verdünnung auf die Stufe 0,5 nach McFarland eingestellt und die Konzentration spektrometrisch bei einer Wellenlänge von 580nm überprüft. Die Zellsuspensionen wurden zur Verwendung in den Tests auf 10^4 UFC/ml verdünnt. Die MHK-Tests erfolgten (Vorschrift nach J. N. P. Eloff, Planta Medica, Vol. 64, 1998, p 711-713) in Mikrotiterplatten mit 96 Vertiefungen. Serienverdünnungen der Konzentrationen lagen im Bereich 1,00 - 0,0015 mg/mL. Als Kontrollsubstanzen dienten Chloramphenicol bzw. Nistatin (Merck) in einer Konzentration von 0,062 - 0,005 mg/ml bzw. 0,0125 - 0,001 mg/ml. Das Inokulum (100 µl) wurde in alle Vertiefungen gegeben und die Platten für 48h bei 36°C inkubiert. Die antimikrobielle Aktivität wurde durch Zugabe von 20 µl einer 0,5% igen wässrigen Lösung von TTC (Tetrazoliumchlorid, Merck) pro Vertiefung detektiert. Die minimale Hemmkonzentration (MHK) wird als die niedrigste Konzentration der Verbindung definiert die das sichtbare Wachstum hemmt (durch TTC-Färbung indiziert).
# S. aureus = assay: as above; assay type: cell-based; settings: 48h, 36°C
# Rhodococcus equi = assay: as above; assay type: cell-based; settings: 48h, 36°C
# T47D = assay: Chemosensitivity test (modified MTT test EZ4U); settings: Homo sapiens, T47D, 96 h, read-out: IC50-Werte
# Description: as §1, §4, §5
# Escherichia coli = assay: Minimal inhibitory concentration (MHK), microtitre plate, TTC staining; assay type: cell-based; settings: 48h, 36°C
# CRO2B = assay: Chemosensitivity test (modified MTT test EZ4U); settings: Homo sapiens, 96 h, read-out: IC50-Werte
# Description: as §1, §4, §5
# E. hirae = assay: Minimal inhibitory concentration (MHK), microtitre plate, TTC staining; assay type: cell-based; settings: 48h, 36°C
# Candida albicans = assay: as above; assay type: cell-based; settings: 48h, 36°C
# WI38 = assay: Chemosensitivity test (modified MTT test EZ4U); settings: Homo sapiens, WI-38, 96 h, read-out: IC50-Werte
# Description: as §1, §4, §5
Compound,MHK-Werte (S. falcium),MHK-Werte (S. epidermides),MHK-Werte (Bacillus subitilis),MHK-Werte (Micrococcus luteus),MHK-Werte (Salmonella sp),MHK-Werte (S. aureus),MHK-Werte (Rhodococcus equi),MHK-Werte (Escherichia coli),MHK-Werte (E. hirae),MHK-Werte (Candida albicans),other results
"COc1cc(/C=C/C(=O)c2ccccc2O)ccc1O [Q20, 3-(4-Hydroxy-3-methoxyphenyl)-1-(2-hydroxyphenyl)-propenon]","0,3 mg/ml","0,5 mg/ml","0,5 mg/ml","1,0 mg/ml",">1,0 mg/ml","1,0 mg/ml",">1,0 mg/ml",">1,0 mg/ml",">1,0 mg/ml","0,3 mg/ml",Radikalfänger-Effekt [1]: 98%; Keimwachstum (grade) [2]: ++; Keimwachstum reduziert auf [2]: 30%; IC50 (BT20): 33 µg/mL; IC50 (HT29): 16 µg/mL; IC50 (BxPC3): 33 µg/mL; IC50 (MDA-MB435): 24 µg/mL; IC50 (MIAPaCa2): 18 µg/mL; IC50 (CaCo-2): 12 µg/mL; IC50 (SW620): 17 µg/mL; IC50 (DU 145): 16 µg/mL; IC50 (Colo205): 27 µg/mL; IC50 (T47D): 25 µg/mL; IC50 (CRO2B): 12 µg/mL; IC50 (WI38): 8.3 µg/mL
"COc1cc(/C=C/C(=O)c2ccccc2O)ccc1OCC=C(C)C [Q21, 1-(2-Hydroxyphenyl)-3-[3-methoxy-4-(3-methylbut-2-enyloxy)phenyl]propenon]","0,8 mg/ml",">1,0 mg/ml",">1,0 mg/ml",">1,0 mg/ml","0,9 mg/ml",">1,0 mg/ml",">1,0 mg/ml",">1,0 mg/ml",">1,0 mg/ml","0,6 mg/ml",–

# Reference: patent EP1764363A2, “Substituted acetophenonederivatives” (Riemser Arzneimittel AG, priority 2005, dated 2007)
